Test results reported in PMC11931604 (Drug Development Research, 2025).
Entries after “also recorded” stand apart in the source; their conditions may differ. Like-named read-outs stand apart in the source and are kept apart here.

Columns and labels:
IBV (B/Ned/537/05) = assay: CPE reduction assay in MDCK cells, influenza B virus; assay type: cell-based
[1] = system: A/H1N1 (strain A/Ned/378/05); assay: CPE reduction assay in MDCK cells, influenza A/H1N1; assay type: cell-based; conditions: Influenza A virus
A/H3N2 (A/HK/7/87) = assay: microbe, parasite or virus in culture; assay type: cell-based, influenza A virus; conditions: for EC50: Influenza A virus, H3N2, MDCK; for anti-A/H3N2 activity (in words): MDCK cells
in vitro = conditions: dog
[2] = read-out: Antiviral EC50 IBV CPE
[3] = read-out: Antiviral EC50 IBV MTS
[4] = read-out: Antiviral EC50 A/H1N1 CPE
[5] = read-out: Antiviral EC50 A/H1N1 MTS
[6] = read-out: Antiviral EC50 A/H3N2 CPE
[7] = read-out: Antiviral EC50 A/H3N2 MTS

Structure (SMILES) | EC50 (IBV (B/Ned/537/05); [2]) | EC50 (IBV (B/Ned/537/05); [3]) | EC50 [1, 4] | EC50 [1, 5] | EC50 (A/H3N2 (A/HK/7/87); [6]) | EC50 (A/H3N2 (A/HK/7/87); [7]) | CC50 (in vitro) | anti-A/H3N2 activity (in words) (A/H3N2 (A/HK/7/87))
CC(C)(C)c1ccc(C(=O)NN2C(=O)CSC23CCCCC3)cc1 [Compound 1a, 4‐(tert‐Butyl)‐N‐(3‐oxo‐1‐thia‐4‐azaspiro[4.5]decan‐4‐yl)benzamide] | > 100 µM | > 100 µM | > 100 µM | > 100 µM | > 100 µM | > 100 µM | > 100 µM | 
CC(C)(C)c1ccc(C(=O)NN2C(=O)CSC23CCC(C(C)(C)C)CC3)cc1 (stereo not drawn) [Compound 1f, 4‐(tert‐Butyl)‐N‐(8‐(tert‐butyl)‐3‐oxo‐1‐thia‐4‐azaspiro[4.5]decan‐4‐yl)benzamide] | > 100 µM | > 100 µM | > 100 µM | > 100 µM | > 100 µM | > 100 µM | > 100 µM | 
CC1CCC2(CC1)SC(C)C(=O)N2NC(=O)c1ccc(C(C)(C)C)cc1 (stereo not drawn) [Compound 2c, 4‐(tert‐Butyl)‐N‐(2,8‐dimethyl‐3‐oxo‐1‐thia‐4‐azaspiro[4.5]decan‐4‐yl)benzamide] | > 100 µM | > 100 µM | > 100 µM | > 100 µM | 2.4 ± 0.8 µM | 1.3 ± 0.3 µM | 39 ± 25 µM | 
CCCC1CCC2(CC1)SCC(=O)N2NC(=O)c1ccc(C(C)(C)C)cc1 (stereo not drawn) [Compound 1e, 4‐(tert‐Butyl)‐N‐(3‐oxo‐8‐propyl‐1‐thia‐4‐azaspiro[4.5]decan‐4‐yl)benzamide] | > 100 µM | > 100 µM | > 100 µM | > 100 µM | > 100 µM | > 100 µM | > 100 µM | 
CC1SC2(CCC(C(C)(C)C)CC2)N(NC(=O)c2ccc(C(C)(C)C)cc2)C1=O (stereo not drawn) [Compound 2f, 4‐(tert‐Butyl)‐N‐(8‐(tert‐butyl)‐2‐methyl‐3‐oxo‐1‐thia‐4‐azaspiro[4.5]decan‐4‐yl)benzamide] | > 100 µM | > 100 µM | > 100 µM | > 100 µM | > 100 µM | > 100 µM | > 100 µM | 
CCC(CC)O[C@@H]1C=C(C(=O)O)C[C@H](N)[C@H]1NC(C)=O [Oseltamivir carboxylate, reference compound] | 0.8 µM | 0.6 µM | 0.5 µM | 0.4 µM | 0.8 µM | 0.4 µM | > 100 µM | 
CCC1CCC2(CC1)SC(C)C(=O)N2NC(=O)c1ccc(C(C)(C)C)cc1 (stereo not drawn) [Compound 2d, 4‐(tert‐Butyl)‐N‐(8‐ethyl‐2‐methyl‐3‐oxo‐1‐thia‐4‐azaspiro[4.5]decan‐4‐yl)benzamide] | > 100 µM | > 100 µM | > 100 µM | > 100 µM | > 100 µM | > 100 µM | 13 µM | 
CC1CCCC2(C1)SC(C)C(=O)N2NC(=O)c1ccc(C(C)(C)C)cc1 (stereo not drawn) [Compound 2b, 4‐(tert‐Butyl)‐N‐(2,7‐dimethyl‐3‐oxo‐1‐thia‐4‐azaspiro[4.5]decan‐4‐yl)benzamide] | > 100 µM | > 100 µM | > 100 µM | > 100 µM | > 100 µM | > 100 µM | 78 µM | devoid of antiviral activity
CC1CCC2(CC1)SCC(=O)N2NC(=O)c1ccc(C(C)(C)C)cc1 (stereo not drawn) [Compound 1c, 4‐(tert‐Butyl)‐N‐(8‐methyl‐3‐oxo‐1‐thia‐4‐azaspiro[4.5]decan‐4‐yl)benzamide] | > 100 µM | > 100 µM | > 100 µM | > 100 µM | > 100 µM | > 100 µM | > 100 µM | inactive; also recorded: lacks anti‐A/H3N2 activity
CC(N)C12CC3CC(CC(C3)C1)C2 (stereo not drawn) [Rimantadine, reference compound] | > 200 µM | > 200 µM | 8 µM | 8.7 µM | 0.7 µM | 0.8 µM | > 200 µM | 
NC(=O)c1ncn([C@@H]2O[C@H](CO)[C@@H](O)[C@H]2O)n1 [Ribavirin, reference compound] | 9 µM | 5.3 µM | 8.9 µM | 7.1 µM | 6.8 µM | 1.3 µM | > 100 µM | 
CCCC1CCC2(CC1)SC(C)C(=O)N2NC(=O)c1ccc(C(C)(C)C)cc1 (stereo not drawn) [Compound 2e, 4‐(tert‐Butyl)‐N‐(2‐methyl‐3‐oxo‐8‐propyl‐1‐thia‐4‐azaspiro[4.5]decan‐4‐yl)benzamide] | > 100 µM | > 100 µM | > 100 µM | > 100 µM | > 100 µM | > 100 µM | 14 µM | 
CC1CCCC2(C1)SCC(=O)N2NC(=O)c1ccc(C(C)(C)C)cc1 (stereo not drawn) [Compound 1b, 4‐(tert‐Butyl)‐N‐(7‐methyl‐3‐oxo‐1‐thia‐4‐azaspiro[4.5]decan‐4‐yl)benzamide] | > 100 µM | > 100 µM | > 100 µM | > 100 µM | > 100 µM | > 100 µM | 11 µM | 
CCC1CCC2(CC1)SCC(=O)N2NC(=O)c1ccc(C(C)(C)C)cc1 (stereo not drawn) [Compound 1d, 4‐(tert‐Butyl)‐N‐(8‐ethyl‐3‐oxo‐1‐thia‐4‐azaspiro[4.5]decan‐4‐yl)benzamide] | > 100 µM | > 100 µM | > 100 µM | > 100 µM | > 100 µM | > 100 µM | > 100 µM | 
CC1SC2(CCCCC2)N(NC(=O)c2ccc(C(C)(C)C)cc2)C1=O (stereo not drawn) [Compound 2a, 4‐(tert‐Butyl)‐N‐(2‐methyl‐3‐oxo‐1‐thia‐4‐azaspiro[4.5]decan‐4‐yl)benzamide] | > 100 µM | > 100 µM | > 100 µM | > 100 µM | > 100 µM | > 100 µM | 92 µM | devoid of antiviral activity
